From paper PMC12668310, “High‐Throughput Synthesis and Screening of a Cyanimide Library Identifies Selective Inhibitors of ISG15‐Specific Protease mUSP18” (Angewandte Chemie (International Ed. in English), 2025)
“And” between values parts separate entries of the source, which are not always exact repeats. Equal entries are not always repeated. Where two headings read alike, the source gives them in different places.

Target: T1, mUSP18 (Mus musculus, UniProt Q9WTV6)
T1 construct: (46-368); His-tag (N); made in house
T1 sequence (Q9WTV6 46-368): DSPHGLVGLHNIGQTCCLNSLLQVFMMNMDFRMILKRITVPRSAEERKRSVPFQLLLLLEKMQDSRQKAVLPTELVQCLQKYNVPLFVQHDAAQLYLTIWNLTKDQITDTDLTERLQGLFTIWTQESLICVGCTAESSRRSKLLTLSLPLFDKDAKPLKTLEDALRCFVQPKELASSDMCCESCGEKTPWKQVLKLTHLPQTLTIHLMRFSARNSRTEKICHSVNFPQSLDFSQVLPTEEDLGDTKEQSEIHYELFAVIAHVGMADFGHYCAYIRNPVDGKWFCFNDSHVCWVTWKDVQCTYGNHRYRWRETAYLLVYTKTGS
Assay: High-throughput screening, ISG15ct-RhoMP, single dose 1.25 µM
Format: biochemical, murine

[1] = mUSP18 %inhibition, carboxylic acid (CA) building block alone, read-out: %inh CA only
[2] = mUSP18 %inhibition, carboxylic acid (CA) with coupling reagents DIC/HOBT, read-out: %inh CA + DIC/HOBT
[3] = mUSP18 %inhibition, carboxylic acid (CA) building block alone
[4] = mUSP18 %inhibition, carboxylic acid (CA) with coupling reagents DIC/HOBT

SMILES | inhibition at 1.25 µM [1] | inhibition at 1.25 µM [2] | further results
O=C(O)c1cc(-c2ccc(Cl)cc2)oc1C(F)(F)F [CA133] | 11% | 11.8% | –
O=C(O)c1cn(CCc2ccccc2)nn1 [CA160] | 3.82% | 10.4% | –
Cn1cc(-c2ocnc2C(=O)O)cn1 [CA102] | 12.6% | 14.3% | –
O=C(O)c1ccc(F)c(F)c1 [CA059] | -4.22% | -18.1% | –
O=C(O)c1cccc2c1-c1ccccc1C2 [CA038] | 6.69% | -7.2% | –
O=C(O)c1sccc1Br [CA034] | -2.15% | -14% | –
O=C(O)c1cccc(S(=O)(=O)NC2CC2)c1 [CA143] | 5.82% | 3.07% | –
CC(C)(C)OC(=O)N1C[C@@H](O)C[C@@H]1C(=O)O [CA063] | -5.22% | -16.4% | –
CN1CCN(C(=O)C2CC=CCC2C(=O)O)CC1 (stereo not drawn) [CA181] | 2.59% | 16.4% | –
Cc1cc(C(=O)O)ccc1Br [CA028] | -3.46% | -11% | –
O=C(O)Cc1cccc(OCc2ccccn2)c1 [CA158] | 1.44% | 6.76% | –
CN(Cc1ccco1)c1ccccc1C(=O)O [CA151] | 3.28% | 7.61% | –
O=C(O)Cc1cccc(OCc2cccnc2)c1 [CA202] | 0.44% | 3.16% | –
Cc1cnn(-c2c(C(=O)O)c(C)nn2C)c1 [CA110] | 12.9% | 15% | –
Cc1noc(C)c1COc1ccc(CC(=O)O)cc1 [CA191] | 4.33% | 1.25% | –
CC(=O)NCC(=O)O [CA002] | 0.89% | -10.9% | –
CC(C)(C)OC(=O)Nc1ccccc1C(=O)O [CA009] | -1.43% | -19.3% | –
O=C(O)c1cc(S(=O)(=O)N2CCOCC2)c[nH]1 [CA199] | 1.4% | 2.51% | –
O=C(O)c1ccc2c(c1)OCO2 [CA083] | -4.98% | -14.2% | –
O=C(O)C1(c2ccccc2Cl)CCOCC1 [CA178] | 4.04% | 11.9% | –
O=C(O)Cc1ccc(S(=O)(=O)N2CCOCC2)s1 [CA149] | 9.87% | 8.05% | –
CC(=O)CCCCC(=O)O [CA032] | -5.09% | -11.3% | –
O=C(O)C1CCN(C(=O)CCOc2ccccc2)CC1 [CA197] | 4.78% | 1.19% | –

SMILES | inhibition at 1.25 µM [1] | inhibition at 1.25 µM [2] | further results
O=C(O)c1cnc(-c2cccs2)s1 [CA192] | 11.7% | 0.91% | –
O=C(O)c1cn(CC2CCOC2)nn1 (stereo not drawn) [CA318] | -2.05% | -0.23% | –
O=C1CCC(=O)N(c2ccc(C(=O)O)cc2)N1 [CA209] | -2.74% | 14.4% | –
CN1CCN(C(=O)c2ccccc2C(=O)O)CC1 [CA213] | 9.22% | -1.04% | –
O=C(O)CC1C(=O)Nc2ccccc21 (stereo not drawn) [CA078] | -7.04% | -14.2% | –
CC(C(=O)O)n1nc(C(F)(F)F)cc1C1CC1 (stereo not drawn) [CA227] | 2.61% | 2.83% | –
CC(C)(C)OC(=O)NC1(C(=O)O)CC1 [CA060] | -6.62% | -13.2% | –
Cn1ncc(C2CC2)c1C(=O)O [CA166] | 10.9% | -0.27% | –
Cc1ccc(Br)c(C(=O)O)c1 [CA033] | – | – | %inh CA only [3]: -2.06%; %inh CA + DIC/HOBT [4]: -9.49%
O=C(O)CCc1ccccc1Br [CA043] | -0.54% | -8.19% | –
C#CCCCC(=O)O [CA029] | – | – | inhibition at 1.25 µM (read-out: %inh CA + DIC/HOBT): -11.6%; inhibition at 1.25 µM (read-out: %inh CA only): -3.41%
O=C(O)Cc1ccccc1[N+](=O)[O-] [CA013] | 7.76% | -7.61% | –
Cc1csc(N2CCCC(C(=O)O)C2)n1 (stereo not drawn) [CA226] | 2.29% | 3.37% | –
Cc1ccc(-c2cc(C(=O)O)[nH]n2)o1 [CA205] | 0.0344% | 4.51% | –
O=C(O)c1cnn(CC2CCC2)c1 [CA454] | -1.23% | -8.94% | –
O=C(O)c1ccc(N2CCOCC2)cc1 [CA086] | 2% | 15.8% | –
O=C(O)c1ccc(=O)n(Cc2ccccc2)n1 [CA211] | 14.5% | 0.49% | –
O=C(O)c1ccc(S(=O)(=O)N2CCOCC2)cc1 [CA182] | 2.85% | 2.77% | –
O=C(O)CCN(Cc1ccccc1)S(=O)(=O)c1c(Cl)cccc1Cl [CA093] | 18.6% | 13.9% | –
O=C(O)CCc1cccnc1 [CA058] | -2.47% | -16.4% | –
COc1ccc(OCc2cc(C)on2)c(C(=O)O)c1 [CA200] | 0.4% | 3.72% | –
CCN1C(=O)C=CC1=O [NEM] | – | – | %inh CA only [3]: 100.10% and 99.62%; %inh CA + DIC/HOBT [4]: 99.98% and 100.30%

Now from value to compound, other results behind:

inhibition at 1.25 µM [1] | inhibition at 1.25 µM [2] | SMILES | further results
3.53% | -1.94% | Cc1ccccc1COc1cccc(CC(=O)O)c1 [CA288] | –
-10.9% | 63.9% | O=C(O)Cc1ccc(-n2cccc2)cc1 [CA391] | inhibition of mUSP18 by individual CA's and coupling reagents (screened with and without DIC/HOBt): could inhibit mUSP18
2.86% | -1.08% | O=C(O)C(Cc1ccccc1)N1CCCOC1=O (stereo not drawn) [CA335] | –
3.33% | -0.36% | COc1ccc(CC(=O)O)cc1S(=O)(=O)N1CCOCC1 [CA340] | –
-8.86% | -7.67% | O=C(O)c1ccc(-c2ccncc2)[nH]c1=O [CA412] | –
-6.73% | -5.95% | CC1CN(S(=O)(=O)c2ccc(C(=O)O)cc2)CC(C)O1 (stereo not drawn) [CA389] | –
0.43% | 4.83% | COc1ccc(C(=O)O)cc1S(=O)(=O)N(C)CCc1cccnc1 [CA373] | –
-5.61% | 1.41% | O=C(O)c1cnn(-c2ccc(C(F)(F)F)cc2)c1 [CA396] | –
4.42% | 14.8% | O=C(O)c1ccc(Oc2cccc(Cl)c2)cn1 [CA351] | –
5.13% | 1.85% | CN(CC(=O)N1CCCC(C(=O)O)C1)c1ccc(Cl)cn1 (stereo not drawn) [CA241] | –
-2.91% | -4.58% | CNS(=O)(=O)c1ccc(-c2ccc(Cl)c(Cl)c2)c(C(=O)O)c1 [CA387] | –
3.02% | 5.27% | O=C(O)c1ccc(-c2ccccc2)o1 [CA250] | –
9.58% | 1.88% | O=C(O)c1csc(C2CC2)n1 [CA236] | –
9.87% | -3.65% | Cc1nc(COc2ccccc2C(=O)O)no1 [CA307] | –
-10.2% | -2.23% | Cc1c[nH]c(=O)n1-c1cccc(C(=O)O)c1 [CA397] | –
-8.45% | -7.97% | O=C(O)c1cc(COc2ccc(F)cc2F)on1 [CA417] | –
-2.83% | -11.1% | O=C(O)CCn1ccc(C(=O)N2CCCC2)n1 [CA406] | –

inhibition at 1.25 µM [1] | inhibition at 1.25 µM [2] | SMILES | further results
-1.59% | 1.03% | Cn1cc(S(=O)(=O)N2CCOCC2)cc1C(=O)O [CA324] | –
-5% | -2.55% | CC(=O)N1CCN(S(=O)(=O)c2cccc(C(=O)O)c2)CC1 [CA418] | –
1.66% | 2.42% | O=C(O)C1CCCN(S(=O)(=O)c2cccs2)C1 (stereo not drawn) [CA371] | –
-3.85% | -4.32% | Cc1csc(-c2cccc(C(=O)O)c2)n1 [CA416] | –
-0.62% | 1.21% | O=C(O)c1ccnc(C2CC2)n1 [CA347] | –
3.79% | 6.92% | COc1ccc(C(=O)O)cc1S(=O)(=O)NCc1ccccn1 [CA278] | –
-4.32% | 40.8% | O=C(O)c1ccc(N2CCCC2)c(F)c1 [CA295] | –
-3.25% | -8.03% | O=C(O)c1csc(CCc2ccccc2)n1 [CA382] | –
-3.88% | -0.96% | O=C(O)c1cc(-c2ccncc2)on1 [CA294] | –
0.58% | 7.03% | O=C(O)c1ccc(-c2cnco2)cc1 [CA255] | –
-3.17% | 14.7% | O=C(O)c1cnn(-c2ccc(Br)cc2)c1 [CA303] | –
-1.28% | -6.37% | Cn1nc(C2CCC2)cc1C(=O)O [CA432] | –
2.77% | 4.1% | O=C(O)C1CCCN1C(=O)Cc1ccccc1 (stereo not drawn) [CA228] | –
-5.24% | 4.15% | Cc1ccccc1-n1cc(C(=O)O)cn1 [CA429] | –
-2.54% | -7.62% | CN(CC1CC1)c1ccc(C(F)(F)F)cc1C(=O)O [CA386] | –
1.07% | -3.16% | O=C(O)Cc1csc(-c2nnc[nH]2)n1 [CA286] | –
0.9% | -6.97% | O=C(O)c1cc(S(=O)(=O)Nc2nccs2)ccc1F [CA403] | –
